Experimental data as given in article PMC9927415, “Tyrosine Kinase Inhibitors Display Potent Activity against Cryptosporidium parvum” (Microbiology Spectrum, 2022).

Assays:
Experiment in all cases: KINOMEscan competitive binding, whole panel
[1] = target: T1, panel of 203 kinases (Homo sapiens, UniProt P53667); conditions: 10 µM, n=1; kinase LIMK1; read-out: Percent inhibition LIMK1
T1 construct: purchased DiscoverX (KINOMEscan)
Summary of the method: (§1)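 Percentage inhibition reflects loss of kinase binding to solid-phase ATP-site probe ligands in the presence of compound. Kinases carry a T7 bacteriophage fusion.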

[2] = target: T2, panel of 203 kinases (Homo sapiens, UniProt P49840); conditions: 10 µM, n=1; kinase GSK3A; read-out: Percent inhibition GSK3A
T2 construct: purchased DiscoverX (KINOMEscan)
Summary of the method: as §1

[3] = target: T3, panel of 203 kinases (Homo sapiens, UniProt P49761); conditions: 10 µM, n=1; kinase CLK3; read-out: Percent inhibition CLK3
T3 construct: purchased DiscoverX (KINOMEscan)
Summary of the method: as §1

[4] = target: T4, panel of 203 kinases (Homo sapiens, UniProt P37023); conditions: 10 µM, n=1; kinase ACVRL1; read-out: Percent inhibition ACVRL1
T4 construct: purchased DiscoverX (KINOMEscan)
Summary of the method: as §1

[5] = target: T5, panel of 203 kinases (Homo sapiens, UniProt Q8IVH8); conditions: 10 µM, n=1; kinase MAP4K3; read-out: Percent inhibition MAP4K3
T5 construct: purchased DiscoverX (KINOMEscan)
T5 sequence (Q8IVH8 1-894): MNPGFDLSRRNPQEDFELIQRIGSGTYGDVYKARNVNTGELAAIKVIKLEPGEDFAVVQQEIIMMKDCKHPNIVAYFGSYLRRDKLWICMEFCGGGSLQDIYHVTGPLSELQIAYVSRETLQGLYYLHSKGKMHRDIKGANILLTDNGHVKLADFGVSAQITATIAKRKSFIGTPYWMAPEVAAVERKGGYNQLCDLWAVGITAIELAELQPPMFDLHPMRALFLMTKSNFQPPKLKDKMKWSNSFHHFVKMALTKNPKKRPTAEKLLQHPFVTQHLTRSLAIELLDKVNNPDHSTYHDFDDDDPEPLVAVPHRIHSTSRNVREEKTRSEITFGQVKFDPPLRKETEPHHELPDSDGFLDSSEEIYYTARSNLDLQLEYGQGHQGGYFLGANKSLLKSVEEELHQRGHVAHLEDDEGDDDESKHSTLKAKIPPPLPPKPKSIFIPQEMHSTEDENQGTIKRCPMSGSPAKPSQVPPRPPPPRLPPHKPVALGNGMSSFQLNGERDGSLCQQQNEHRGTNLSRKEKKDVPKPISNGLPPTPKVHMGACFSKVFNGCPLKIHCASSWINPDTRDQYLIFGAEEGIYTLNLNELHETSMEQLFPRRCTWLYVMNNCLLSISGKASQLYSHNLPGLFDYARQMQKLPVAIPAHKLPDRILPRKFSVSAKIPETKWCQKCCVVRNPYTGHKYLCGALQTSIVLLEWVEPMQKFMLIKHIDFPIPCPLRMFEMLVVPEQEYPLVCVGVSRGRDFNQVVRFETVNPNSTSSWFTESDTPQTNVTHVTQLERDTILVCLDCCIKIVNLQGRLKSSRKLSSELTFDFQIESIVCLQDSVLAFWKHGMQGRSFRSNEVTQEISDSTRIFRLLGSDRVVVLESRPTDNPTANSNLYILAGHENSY
Summary of the method: as §1

[6] = target: T6, panel of 203 kinases (Homo sapiens, UniProt P42685); conditions: 10 µM, n=1; kinase FRK; read-out: Percent inhibition FRK
T6 construct: purchased DiscoverX (KINOMEscan)
Summary of the method: as §1

[7] = target: T7, panel of 203 kinases (Homo sapiens, UniProt Q13555); conditions: 10 µM, n=1; kinase CAMK2G; read-out: Percent inhibition CAMK2G
T7 construct: purchased DiscoverX (KINOMEscan)
Summary of the method: as §1

[8] = target: T8, panel of 203 kinases (Homo sapiens, UniProt P04626); conditions: 10 µM, n=1; kinase ERBB2; read-out: Percent inhibition ERBB2
T8 construct: purchased DiscoverX (KINOMEscan)
Summary of the method: as §1

[9] = target: T9, panel of 203 kinases (Homo sapiens, UniProt Q8IU85); conditions: 10 µM, n=1; kinase CAMK1D; read-out: Percent inhibition CAMK1D
T9 construct: purchased DiscoverX (KINOMEscan)
Summary of the method: as §1

[10] = target: T10, panel of 203 kinases (Homo sapiens, UniProt P29317); conditions: 10 µM, n=1; kinase EPHA2; read-out: Percent inhibition EPHA2
T10 construct: purchased DiscoverX (KINOMEscan)
Summary of the method: as §1

[11] = target: T11, panel of 203 kinases (Homo sapiens, UniProt P09769); conditions: 10 µM, n=1; kinase FGR; read-out: Percent inhibition FGR
T11 construct: purchased DiscoverX (KINOMEscan)
Summary of the method: as §1

[12] = target: T12, panel of 203 kinases (Homo sapiens, UniProt P21802); conditions: 10 µM, n=1; kinase FGFR2; read-out: Percent inhibition FGFR2
T12 construct: purchased DiscoverX (KINOMEscan)
Summary of the method: as §1

[13] = target: T13, panel of 203 kinases (Homo sapiens, UniProt P31751); conditions: 10 µM, n=1; kinase AKT2; read-out: Percent inhibition AKT2
T13 construct: purchased DiscoverX (KINOMEscan)
Summary of the method: as §1

[14] = target: T14, panel of 203 kinases (Homo sapiens, UniProt Q13554); conditions: 10 µM, n=1; kinase CAMK2B; read-out: Percent inhibition CAMK2B
T14 construct: purchased DiscoverX (KINOMEscan)
Summary of the method: as §1

[15] = target: T15, panel of 203 kinases (Homo sapiens, UniProt Q9P0L2); conditions: 10 µM, n=1; kinase MARK1; read-out: Percent inhibition MARK1
T15 construct: purchased DiscoverX (KINOMEscan)
Summary of the method: as §1

[16] = target: T16, panel of 203 kinases (Homo sapiens, UniProt Q8TDX7); conditions: 10 µM, n=1; kinase NEK7; read-out: Percent inhibition NEK7
T16 construct: purchased DiscoverX (KINOMEscan)
Summary of the method: as §1

T13 sequence (P31751 whole entry): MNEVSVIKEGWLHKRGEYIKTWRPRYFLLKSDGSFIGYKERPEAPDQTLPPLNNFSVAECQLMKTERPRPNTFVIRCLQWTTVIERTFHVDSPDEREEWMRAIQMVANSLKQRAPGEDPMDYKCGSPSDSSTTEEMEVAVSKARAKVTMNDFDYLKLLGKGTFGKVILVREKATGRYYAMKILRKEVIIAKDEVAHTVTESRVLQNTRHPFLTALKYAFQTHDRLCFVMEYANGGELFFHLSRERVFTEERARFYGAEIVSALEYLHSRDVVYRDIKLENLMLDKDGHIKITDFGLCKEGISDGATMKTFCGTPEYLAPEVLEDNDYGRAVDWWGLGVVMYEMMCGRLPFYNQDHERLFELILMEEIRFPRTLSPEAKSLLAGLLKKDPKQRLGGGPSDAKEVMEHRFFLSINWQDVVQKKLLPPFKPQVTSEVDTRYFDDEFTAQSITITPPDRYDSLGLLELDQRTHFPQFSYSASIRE
T10 sequence (P29317 24-976): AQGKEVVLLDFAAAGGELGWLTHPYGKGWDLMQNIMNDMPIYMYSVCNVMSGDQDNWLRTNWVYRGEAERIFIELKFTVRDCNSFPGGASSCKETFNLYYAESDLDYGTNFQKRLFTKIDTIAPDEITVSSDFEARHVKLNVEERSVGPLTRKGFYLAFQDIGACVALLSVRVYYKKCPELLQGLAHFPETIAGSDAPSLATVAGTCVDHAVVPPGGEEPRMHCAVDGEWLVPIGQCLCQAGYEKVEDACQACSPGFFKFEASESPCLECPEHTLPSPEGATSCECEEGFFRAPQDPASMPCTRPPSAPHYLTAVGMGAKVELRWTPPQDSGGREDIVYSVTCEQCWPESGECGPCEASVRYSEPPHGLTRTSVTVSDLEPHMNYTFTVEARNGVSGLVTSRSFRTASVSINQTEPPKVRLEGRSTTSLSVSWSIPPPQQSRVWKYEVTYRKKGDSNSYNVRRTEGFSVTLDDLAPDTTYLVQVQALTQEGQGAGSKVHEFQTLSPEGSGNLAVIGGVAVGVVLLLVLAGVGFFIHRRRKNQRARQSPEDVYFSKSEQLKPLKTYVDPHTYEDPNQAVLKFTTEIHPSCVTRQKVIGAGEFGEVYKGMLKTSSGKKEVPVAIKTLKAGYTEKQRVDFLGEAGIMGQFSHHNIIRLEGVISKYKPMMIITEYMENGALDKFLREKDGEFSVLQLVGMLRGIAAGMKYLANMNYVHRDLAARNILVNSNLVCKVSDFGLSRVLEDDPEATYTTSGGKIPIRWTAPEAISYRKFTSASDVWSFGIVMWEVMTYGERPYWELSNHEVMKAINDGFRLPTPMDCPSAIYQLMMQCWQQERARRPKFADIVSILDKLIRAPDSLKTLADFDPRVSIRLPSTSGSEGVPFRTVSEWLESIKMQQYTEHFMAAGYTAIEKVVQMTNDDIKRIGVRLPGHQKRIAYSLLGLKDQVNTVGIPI
T6 sequence (P42685 whole entry): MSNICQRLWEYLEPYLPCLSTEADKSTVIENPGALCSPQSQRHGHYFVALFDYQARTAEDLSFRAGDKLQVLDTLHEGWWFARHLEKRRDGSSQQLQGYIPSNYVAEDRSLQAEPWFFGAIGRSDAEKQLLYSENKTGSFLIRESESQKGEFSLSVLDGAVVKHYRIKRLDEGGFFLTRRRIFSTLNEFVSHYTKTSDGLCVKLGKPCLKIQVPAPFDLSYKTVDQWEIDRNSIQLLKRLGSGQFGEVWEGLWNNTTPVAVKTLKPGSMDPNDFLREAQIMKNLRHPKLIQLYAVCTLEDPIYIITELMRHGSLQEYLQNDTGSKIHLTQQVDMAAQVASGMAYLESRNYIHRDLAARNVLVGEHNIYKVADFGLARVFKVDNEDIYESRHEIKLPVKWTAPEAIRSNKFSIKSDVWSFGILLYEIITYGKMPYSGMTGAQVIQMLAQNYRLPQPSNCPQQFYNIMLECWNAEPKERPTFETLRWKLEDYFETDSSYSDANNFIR
T9 sequence (Q8IU85 whole entry): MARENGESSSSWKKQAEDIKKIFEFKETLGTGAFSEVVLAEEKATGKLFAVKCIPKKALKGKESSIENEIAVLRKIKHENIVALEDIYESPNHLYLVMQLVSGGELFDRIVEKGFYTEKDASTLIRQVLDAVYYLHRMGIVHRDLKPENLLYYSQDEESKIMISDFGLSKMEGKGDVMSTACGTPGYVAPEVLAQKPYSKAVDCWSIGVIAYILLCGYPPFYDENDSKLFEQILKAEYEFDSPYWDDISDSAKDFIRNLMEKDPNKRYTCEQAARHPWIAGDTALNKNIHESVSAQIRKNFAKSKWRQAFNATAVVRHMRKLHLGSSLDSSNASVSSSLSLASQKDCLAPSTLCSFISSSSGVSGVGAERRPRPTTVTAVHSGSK
T14 sequence (Q13554 whole entry): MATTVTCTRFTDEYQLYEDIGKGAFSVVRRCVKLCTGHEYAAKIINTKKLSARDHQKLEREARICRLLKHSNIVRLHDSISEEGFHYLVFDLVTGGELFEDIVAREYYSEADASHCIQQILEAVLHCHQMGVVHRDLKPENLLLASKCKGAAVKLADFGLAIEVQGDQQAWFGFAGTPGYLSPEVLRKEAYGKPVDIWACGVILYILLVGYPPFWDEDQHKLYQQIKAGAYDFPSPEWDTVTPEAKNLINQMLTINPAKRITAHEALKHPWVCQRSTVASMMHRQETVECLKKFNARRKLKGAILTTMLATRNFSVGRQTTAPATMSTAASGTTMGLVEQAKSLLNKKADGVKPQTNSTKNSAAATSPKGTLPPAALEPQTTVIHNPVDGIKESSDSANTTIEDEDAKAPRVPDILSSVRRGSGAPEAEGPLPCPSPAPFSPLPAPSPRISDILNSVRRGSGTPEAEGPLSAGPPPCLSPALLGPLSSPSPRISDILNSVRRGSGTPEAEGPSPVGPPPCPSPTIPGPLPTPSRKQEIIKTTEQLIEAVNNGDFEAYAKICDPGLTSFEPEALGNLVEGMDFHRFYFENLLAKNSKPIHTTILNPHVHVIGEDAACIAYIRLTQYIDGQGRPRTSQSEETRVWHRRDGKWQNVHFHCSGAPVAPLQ
T12 sequence (P21802 22-821): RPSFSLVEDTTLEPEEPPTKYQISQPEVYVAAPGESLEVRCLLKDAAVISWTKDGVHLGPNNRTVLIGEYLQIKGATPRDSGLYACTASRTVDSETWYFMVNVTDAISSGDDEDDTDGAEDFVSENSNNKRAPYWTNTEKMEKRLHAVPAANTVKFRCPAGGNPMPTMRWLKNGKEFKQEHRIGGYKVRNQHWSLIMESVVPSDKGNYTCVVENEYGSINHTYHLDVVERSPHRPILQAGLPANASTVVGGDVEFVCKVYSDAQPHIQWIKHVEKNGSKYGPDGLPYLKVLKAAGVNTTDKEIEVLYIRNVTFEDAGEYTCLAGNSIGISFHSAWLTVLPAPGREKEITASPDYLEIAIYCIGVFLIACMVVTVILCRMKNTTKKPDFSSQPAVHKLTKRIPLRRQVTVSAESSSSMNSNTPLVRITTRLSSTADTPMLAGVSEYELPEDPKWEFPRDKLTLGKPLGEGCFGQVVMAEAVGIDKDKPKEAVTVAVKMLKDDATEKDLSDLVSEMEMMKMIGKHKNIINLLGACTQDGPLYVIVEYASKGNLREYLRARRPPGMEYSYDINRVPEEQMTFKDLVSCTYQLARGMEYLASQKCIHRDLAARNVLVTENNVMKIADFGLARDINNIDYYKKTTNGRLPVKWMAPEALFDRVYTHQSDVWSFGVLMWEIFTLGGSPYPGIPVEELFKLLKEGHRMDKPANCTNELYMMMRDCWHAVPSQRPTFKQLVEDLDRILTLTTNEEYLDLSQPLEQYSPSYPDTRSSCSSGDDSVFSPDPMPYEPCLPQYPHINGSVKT
T16 sequence (Q8TDX7 whole entry): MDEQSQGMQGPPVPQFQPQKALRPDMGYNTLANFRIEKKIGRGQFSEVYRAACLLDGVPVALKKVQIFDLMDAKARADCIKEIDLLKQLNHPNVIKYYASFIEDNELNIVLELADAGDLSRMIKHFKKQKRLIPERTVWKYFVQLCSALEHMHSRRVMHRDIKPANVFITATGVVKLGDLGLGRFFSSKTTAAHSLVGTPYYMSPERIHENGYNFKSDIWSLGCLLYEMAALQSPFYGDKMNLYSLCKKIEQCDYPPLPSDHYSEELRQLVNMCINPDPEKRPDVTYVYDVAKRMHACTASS
T1 sequence (P53667 whole entry): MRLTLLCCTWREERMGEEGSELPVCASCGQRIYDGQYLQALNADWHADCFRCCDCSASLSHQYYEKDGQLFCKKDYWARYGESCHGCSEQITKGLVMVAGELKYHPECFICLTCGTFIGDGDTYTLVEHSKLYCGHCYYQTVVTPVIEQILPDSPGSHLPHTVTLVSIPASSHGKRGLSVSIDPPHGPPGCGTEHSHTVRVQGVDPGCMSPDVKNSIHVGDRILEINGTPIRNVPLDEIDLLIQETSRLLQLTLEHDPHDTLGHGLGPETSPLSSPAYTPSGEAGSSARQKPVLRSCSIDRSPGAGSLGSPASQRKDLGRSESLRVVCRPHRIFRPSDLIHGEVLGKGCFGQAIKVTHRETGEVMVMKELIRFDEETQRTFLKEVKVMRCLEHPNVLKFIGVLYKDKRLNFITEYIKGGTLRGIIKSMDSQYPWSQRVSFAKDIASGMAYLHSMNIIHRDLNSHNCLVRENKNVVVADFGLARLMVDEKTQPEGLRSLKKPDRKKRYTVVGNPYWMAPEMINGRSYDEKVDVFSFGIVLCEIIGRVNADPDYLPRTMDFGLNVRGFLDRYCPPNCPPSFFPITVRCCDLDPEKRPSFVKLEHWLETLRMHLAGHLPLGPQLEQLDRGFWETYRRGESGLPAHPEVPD

SMILES | inhibition at 10 µM [1] | inhibition at 10 µM [2] | inhibition at 10 µM [3] | inhibition at 10 µM [4] | inhibition at 10 µM [5] | inhibition at 10 µM [6] | inhibition at 10 µM [7] | inhibition at 10 µM [8] | inhibition at 10 µM [9] | inhibition at 10 µM [10] | inhibition at 10 µM [11] | inhibition at 10 µM [12] | inhibition at 10 µM [13] | inhibition at 10 µM [14] | inhibition at 10 µM [15] | inhibition at 10 µM [16]
COc1cc(Nc2nccc(-c3sc(N)nc3-c3cccc(NC(=O)c4c(F)cccc4F)c3)n2)cc(OC)c1OC [Compound 7] | 100% | 0% | 0% | 0% | 99.7% | 100% | 0% | 100% | 91.8% | 99.4% | 100% | 100% | 0% | 0% | 79% | 91.3%
C[C@@H](Oc1cc(-c2cnc3ccccn23)sc1C(N)=O)c1ccccc1Cl [Compound 8] | 0% | 0% | 0% | 0% | 0% | 0% | 0% | 0% | 0% | 0% | 0% | 0% | 0% | 0% | 0% | 0%
c1ccc(COc2cccc(-c3ccnc4[nH]ccc34)c2)cc1 [Compound 9] | 0% | 0% | 0% | 0% | 0% | 0% | 0% | 0% | 0% | 0% | 0% | 0% | 0% | 0% | 0% | 0%
Clc1ccc(Nc2ncc(-c3ccccc3)s2)cc1 [Compound 10] | 0% | 0% | 0% | 0% | 0% | 0% | 0% | 0% | 0% | 0% | 0% | 0% | 0% | 0% | 0% | 0%
Nc1ncc2c(-c3ccncc3)c[nH]c2n1 [Compound 11] | 0% | 0% | 84.9% | 0% | 82% | 0% | 0% | 0% | 0% | 0% | 76.8% | 0% | 0% | 85.7% | 0% | 0%
